# Assay results taken from US20210285031A1, “FRET BASED PROTEIN BIOSENSOR FOR DETECTION OF CYCLIC DINUCLEOTIDES” (University of Washington, priority 2020, published 2021).
# pEC50, pIC50, pKd: −log10 of the molar value.
# Columns and labels:
# [1] = target: T1, full length Lmo0553 fused to eCFP (N terminus) and eYFP (C terminus) (Listeria monocytogenes, UniProt Q8Y9H5); experiment: FRET response, full length Lmo0553 fusion; type: biochemical
# T1 construct: recombinant, purified
# Description: To leverage these structural rearrangements, the FRET pair eCFP and eYFP were respectively fused to the N and C termini of full length Lmo0553. […] Additional engineering may have allowed for the generation of a FRET biosensor utilizing full length Lmo0553, but without a response to optimize, these efforts would have been arduous and potentially unsuccessful.
# [2] = tested on: STING; details: background; cited from earlier work
# [3] = target: T2, CDA5 (eCFP-Lmo0553 Bateman domain (truncated at N-127)-eYFP FRET fusion; SEQ ID NO:36, Bateman domain SEQ ID NO:35) (Listeria monocytogenes, UniProt Q8Y9H5); experiment: In vitro FRET measurement, CDA5
# [4] = target: T3, CDA5 variant Y34A (parent CDA5, Lmo0553 Bateman domain) (Listeria monocytogenes, UniProt Q8Y9H5, Y34A); experiment: DRaCALA binding assay, CDA5 Y34A
# Description: (§3) It was hypothesized that by replacing the stabilizing tyrosine ring with an alanine (Y34A), c-di-AMP binding would be minimized in a manner unlikely to disrupt protein stability. […] Next, increasing concentrations of c-di-AMP were added to purified CDA5 and Y34A CDA5 and analyzed by plate reader assay for FRET response.
# [5] = target: T3, CDA5 variant Y34A (parent CDA5, Lmo0553 Bateman domain); experiment: In vitro FRET measurement, CDA5 Y34A; details: increasing concentrations of c-di-AMP
# Description: as §3
# [6] = target: T2, CDA5 (eCFP-Lmo0553 Bateman domain (truncated at N-127)-eYFP FRET fusion; SEQ ID NO:36, Bateman domain SEQ ID NO:35); experiment: DRaCALA radioactive nucleotide binding assay, CDA5
# [7] = target: Listeria monocytogenes Lmo0553, full length (Listeria monocytogenes, UniProt Q8Y9H5); experiment: DRaCALA radioactive nucleotide binding assay, full length Lmo0553
# [8] = target: T4, BioSTING (Mus musculus, UniProt Q3TBT3); experiment: DRaCALA binding specificity: excess unlabeled nucleotides competing with [32P] 2′3′-cGAMP; set-up: species or system murine; details: 500 μM excess unlabeled nucleotide, ~1 nM [32P] 2′3′-cGAMP
# T4 construct: made in house; host or cells: E. coli Rosetta (DE3)pLysS
# T4 sequence (Q3TBT3 with tags, fused parts or gaps): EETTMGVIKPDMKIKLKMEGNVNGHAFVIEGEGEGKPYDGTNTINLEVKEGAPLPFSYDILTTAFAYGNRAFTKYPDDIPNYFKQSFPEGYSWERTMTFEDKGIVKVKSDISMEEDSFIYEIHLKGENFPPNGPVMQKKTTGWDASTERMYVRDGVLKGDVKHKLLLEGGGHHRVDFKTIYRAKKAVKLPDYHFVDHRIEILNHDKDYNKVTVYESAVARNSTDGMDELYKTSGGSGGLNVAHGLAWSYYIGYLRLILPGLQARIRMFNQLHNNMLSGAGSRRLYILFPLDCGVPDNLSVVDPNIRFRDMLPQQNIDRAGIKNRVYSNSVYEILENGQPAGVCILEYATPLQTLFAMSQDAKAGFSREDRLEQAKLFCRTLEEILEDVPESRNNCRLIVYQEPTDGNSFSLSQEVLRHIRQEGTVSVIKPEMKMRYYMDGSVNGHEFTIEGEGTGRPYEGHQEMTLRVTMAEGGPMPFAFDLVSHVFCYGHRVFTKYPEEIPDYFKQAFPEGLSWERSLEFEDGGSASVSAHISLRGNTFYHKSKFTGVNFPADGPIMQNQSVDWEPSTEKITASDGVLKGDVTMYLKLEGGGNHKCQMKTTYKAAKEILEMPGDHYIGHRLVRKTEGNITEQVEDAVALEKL
# [9] = target: T5, BioSTING (mTFP-GGSGG-murine STING CTD (L152-E335)-mKO2 FRET fusion; SEQ ID NO:34, CDN binding domain SEQ ID NO:33) (Mus musculus, UniProt Q3TBT3); experiment: DRaCALA radioactive nucleotide binding assay, BioSTING; details: 500 μM unlabeled nucleotide, ~1 nM [32P] 2′3′-cGAMP
# T5 construct: His tag (inferred from Ni-NTA purification and the pET15b vector); made in house; host or cells: E. coli Rosetta (DE3)pLysS
# T5 sequence (Q3TBT3 with tags, fused parts or gaps): T4 sequence (Q3TBT3 with tags, fused parts or gaps)
# Description: (§1) FIGS. 1A-1H. BioSTING Design and Optimization. (1A) Schematic representation of full-length STING (top) and BioSTING with additional GGSGG linker between mTFP and STING-CTD (bottom). Abbreviations are defined as follows: TM (transmembrane region), DD (dimerization domain), CBD (CDN binding domain), and CTT (C-terminal tail). (1B) Overlay and structural alignment of human STING CTD in apo (“blue”) and c-di-GMP bound (“gray”) states (PDB 4F5E and 4F5D, respectively). […] The N and C-terminal helices of the CTD are highlighted with the terminal residues in red and their associated displacement following ligand binding labeled in angstroms. (1C) Model of the FRET increase which occurs upon CDN binding. Generated with Biorender.com. […] In all panels, individual data points of n=2 biological replicates are shown.
# (§2) Finally, the dissociation kinetics were monitored by determining the rate that cold nucleotide could compete off bound radioactive nucleotide. […] [^32P] […] Binding assays were performed in binding buffer [40 mM Tris pH 7.5, 100 mM NaCl, 20 mM MgCl2] at room temperature.
# [10] = target: T6, murine STING CTD (mSTING-CTD; CDN binding domain SEQ ID NO:33) (Mus musculus, UniProt Q3TBT3); experiment: DRaCALA radioactive nucleotide binding assay, STING-CTD; details: 500 μM unlabeled nucleotide, ~1 nM [32P] 2′3′-cGAMP
# T6 construct: 6xHis; made in house; host or cells: E. coli Rosetta (DE3)pLysS
# T6 sequence (Q3TBT3 134-378 limits assumed): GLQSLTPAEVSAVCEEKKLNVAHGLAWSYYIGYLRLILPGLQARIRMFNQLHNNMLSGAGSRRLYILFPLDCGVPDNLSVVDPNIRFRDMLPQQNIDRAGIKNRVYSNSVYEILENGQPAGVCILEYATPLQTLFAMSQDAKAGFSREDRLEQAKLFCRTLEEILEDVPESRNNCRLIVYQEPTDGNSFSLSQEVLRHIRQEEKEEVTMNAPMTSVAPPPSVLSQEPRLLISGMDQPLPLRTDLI
# Description: as §1
# FIGS. 6A and 6B. BioSTING development and characterization.
# as §2
# [11] = target: T7, cGAS (recombinant SUMO-mcGAS) (Mus musculus, UniProt Q8C6L5); experiment: cGAS activity assay measuring 2′3′-cGAMP production using BioSTING; type: biochemical; details: fixed cGAS; 250 μM ATP, 250 μM GTP, 50 ng ISD; 37° C.
# T7 construct: product read by BioSTING
# Description: FIGS. 2A-2F. Real time measurement of CDN synthesis and determination of CDN levels from cellular extracts. […]. In panels (2B)-(2D) and (2F), data are presented as mean±s.d. of n=3 (2B, 2F) or n=8 (2C, 2D) biological replicates.
# BioSTING FRET assays are carried out in a 96-well format using a fluorescent plate reader making it amenable to in vitro high throughput screening efforts (FIG. 7B). […]. In addition to screening for modulators of CDN synthase activity, BioSTING could also potentially be used to screen directly for STING agonists and antagonists.
# Enzyme assays were initiated by the addition of 1 mM ATP, 1 mM GTP and 1 μg ISD (FIGS. 2B, 7A, and 7B) or by the addition of 250 μM ATP, 250 μM GTP, and 50 ng ISD (FIGS. 2C, 2D, and 7C).
# [12] = tested on: cGAS; details: literature value (Pfizer); read-out: reported IC50; cited from earlier work
# [13] = excess (500 μM) unlabeled c-di-AMP, DRaCALA
# T7 sequence (Q8C6L5 whole entry): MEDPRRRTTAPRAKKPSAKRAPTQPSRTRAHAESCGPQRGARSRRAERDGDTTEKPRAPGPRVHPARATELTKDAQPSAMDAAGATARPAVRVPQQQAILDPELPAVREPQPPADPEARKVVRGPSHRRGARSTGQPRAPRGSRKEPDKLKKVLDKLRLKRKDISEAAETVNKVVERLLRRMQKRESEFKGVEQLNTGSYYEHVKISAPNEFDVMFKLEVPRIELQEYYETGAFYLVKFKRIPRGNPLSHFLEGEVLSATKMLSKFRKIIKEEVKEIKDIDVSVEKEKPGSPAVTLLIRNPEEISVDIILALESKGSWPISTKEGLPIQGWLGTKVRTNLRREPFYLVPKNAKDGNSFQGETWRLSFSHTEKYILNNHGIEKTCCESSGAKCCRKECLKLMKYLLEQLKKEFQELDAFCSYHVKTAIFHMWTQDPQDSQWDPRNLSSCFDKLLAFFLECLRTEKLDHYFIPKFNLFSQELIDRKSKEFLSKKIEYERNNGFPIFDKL
compound,measurement,setting,value
"Nc1ncnc2c1ncn2[C@@H]1O[C@@H]2COP(=O)(O)O[C@H]3[C@@H](O)[C@H](n4cnc5c(N)ncnc54)O[C@@H]3COP(=O)(O)O[C@H]2[C@H]1O [3′3′-c-di-AMP, 3′3′-cyclic di-adenosine monophosphate]",FRET response upon the addition of c-di-AMP,[1],no FRET response was observed
same,affinity for STING relative to 2′3′-cGAMP,[2],markedly reduced affinities
same,pEC50,[3],6.42
same,kon (less than the sampling limit),[3]; FRET responses stable immediately upon addition of c-di-AMP,< 10 s
same,Emax,[3]; read-out: FRET increase,23%
same,c-di-AMP binding,[4],c-di-AMP bound to CDA5 but not the Y34A CDA5 point mutant control
same,FRET increase upon the addition of c-di-AMP,[5],CDA5 but not Y34A CDA5 produced a robust FRET increase
same,pKd,[6],5.23
same,competition of bound [32P] c-di-AMP by unlabeled nucleotide,[6],only unlabeled c-di-AMP
same,koff (time for competition by unlabeled c-di-AMP),[6]; [13],completely within two seconds
same,pKd,[7],5.32
same,competition of bound [32P] c-di-AMP by unlabeled nucleotide,[7],only unlabeled c-di-AMP
same,koff (time for competition by unlabeled c-di-AMP),[7]; [13],completely within two seconds
"Nc1nc2c(ncn2[C@@H]2O[C@@H]3COP(=O)(O)O[C@H]4[C@@H](O)[C@H](n5cnc6c(N)ncnc65)O[C@@H]4COP(=O)(O)O[C@H]3[C@H]2O)c(=O)[nH]1 [3′3′-cGAMP, 3′,3′-cyclic GMP AMP]",affinity for STING relative to 2′3′-cGAMP,[2],markedly reduced affinities
Nc1ncnc2c1ncn2[C@@H]1O[C@H](COP(=O)(O)OP(=O)(O)OP(=O)(O)O)[C@@H](O)[C@H]1O [ATP],competing off bound [32P] 2′3′-cGAMP,[8],not
same,competition of bound [32P] 2′3′-cGAMP by unlabeled nucleotide,[9],"not ATP, GTP, cAMP, or cGMP could compete off"
same,competition of bound [32P] 2′3′-cGAMP by unlabeled nucleotide,[10],"not ATP, GTP, cAMP, or cGMP could compete off"
Nc1nc2c(ncn2[C@@H]2O[C@H](COP(=O)(O)OP(=O)(O)OP(=O)(O)O)[C@@H](O)[C@H]2O)c(=O)[nH]1 [GTP],competing off bound [32P] 2′3′-cGAMP,[8],not
same,competition of bound [32P] 2′3′-cGAMP by unlabeled nucleotide,[9],"not ATP, GTP, cAMP, or cGMP could compete off"
same,competition of bound [32P] 2′3′-cGAMP by unlabeled nucleotide,[10],"not ATP, GTP, cAMP, or cGMP could compete off"
O=C(NC1CCCCC1C(=O)O)c1cnn2c(O)cc(-c3ccccc3)nc12 (centres unmarked) [PF-06928215],pIC50,[11],~4.92
same,pIC50,[12],5.30
"Nc1nc2c(ncn2[C@@H]2O[C@@H]3COP(=O)(O)O[C@H]4[C@@H](O)[C@H](n5cnc6c(=O)[nH]c(N)nc65)O[C@@H]4COP(=O)(O)O[C@H]3[C@H]2O)c(=O)[nH]1 [c-di-GMP, 3′,3′-cyclic di-GMP]",affinity for STING relative to 2′3′-cGAMP,[2],markedly reduced affinities
Nc1nc2c(ncn2[C@@H]2O[C@@H]3COP(=O)(O)O[C@H]3[C@H]2O)c(=O)[nH]1 [cGMP],competing off bound [32P] 2′3′-cGAMP,[8],not
same,competition of bound [32P] 2′3′-cGAMP by unlabeled nucleotide,[9],"not ATP, GTP, cAMP, or cGMP could compete off"
same,competition of bound [32P] 2′3′-cGAMP by unlabeled nucleotide,[10],"not ATP, GTP, cAMP, or cGMP could compete off"
